Tests used:
peri-orbital skin = test: Quantitative microtopography of skin casts, depth of deep wrinkles (photoaging); type: in vivo, human
Experimental: A significant adverse symptom of photoaging is the presence of deep wrinkles. […] In one exemplary protocol, an orbital patch containing CoQ10 in a delivery vehicle or carrier as described above is applied to one eye of a subject, and a control orbital patch containing a delivery vehicle alone is applied around the other eye. Casts are then prepared for quantitative microtopography [see, e.g., Hoppe, et al., J. Soc. Cosmetic Chemists 36: 105-123 (1985), incorporated herein by reference]. Photographs of the skin before treatment show deep wrinkles, which are characteristic of photoaging, whereas fine wrinkles are associated with chronological aging. Using microtopography to measure a reduction in the depth of wrinkles in aged skin, two important parameters can be calculated from the microtopography. They are: Rt which is the mean peak to valley measurement of a defined unit distance, and Rq which is the integrated area of the peaks and troughs. These measurements indicate the variation of the microtopography from a flat surface. […] In certain examples, treatment with an orbital patch containing 0.3% CoQ10 will results in at least a 25% reduction in the mean peak to valley depth of the skin and at least a 25% reduction in the Rq value, compared to controls.

facial skin = test: Corneocyte surface area (senile xerosis) after facial patch or mask treatment; type: in vivo; conditions: patch or mask containing 0.3% CoQ10, once or twice daily for 7 days, vs delivery vehicle or carrier alone
Description: Although the stratum corneum, the outermost layer of the epidermis, is continuously sloughed off and replaced in healthy individuals, it will display symptoms of aging in the underlying living cells in older subjects. The area of corneocytes, which make up the stratum corneum, is proportional to the time taken for the keratinocyte to differentiate and move from the basal layer to the stratum corneum. In aged skin, the time taken to move through the epidermis increases, and corneocytes become larger. The surface can develop fine lines and become dry and scaly (senile xerosis). As aging progresses, the surface area of corneocytes increases, and thus this value can be measured to determine the effectiveness of an anti-aging treatment (i.e., to decrease the transit time and corneocyte surface area).

human skin = test: Ultra weak photon emission (UPE) assay of skin after UVA irradiation; type: in vivo; conditions: orbital patch with 0.3% CoQ10 once or twice daily for 7 days, 50 mJ/cm^2 UVA, vs delivery vehicle alone
Description: Oxidative events in human skin in vivo following delivery of CoQ10 via a facial patch or mask of the invention are detected, for example, by means of ultra weak photon emission assay [Sauermann et al., Oxidants & Antioxidants, Methods in Enzymology, L. Packer, ed., Academic Press, 300: 419-428 (1999), incorporated herein by reference]. In the basal state, cells emit low levels of photons. When UVA irradiation is applied there is an excited state with a large increase in the level of photons that decay with time. The level of photons emitted is an indication of the antioxidant status of the skin. If there is an increase in antioxidants, the excitation is less and the level of photons emitted will be reduced. The ultra weak photon emission (UPE) is measured after UVA irradiation in two age groups: (1) aged 18-25 years, (2) aged 60-72 years.

[1] = intraduodenal, rats, with 1% (w/v) saline dispersion of polycarbophil; cited from earlier work
[2] = orbital patch containing 0.3% CoQ10, compared to controls

Row | Molecule | reduction in the Rq value (peri-orbital skin; [2]) [%] | reduction in the mean peak to valley depth of the skin (Rt) (peri-orbital skin; [2]) [%] | depth of deep wrinkles (peri-orbital skin; patch containing 0.3% CoQ10 once daily, at least 2 hours each day, one week to six months, vs vehicle control) | corneocyte area over time (facial skin) | levels of UPE compared to control level (human skin) | increase in bioavailability compared to aqueous solution without polymer [1]
1 | COC1=C(OC)C(=O)C(C/C=C(\C)CC/C=C(\C)CC/C=C(\C)CC/C=C(\C)CC/C=C(\C)CC/C=C(\C)CC/C=C(\C)CC/C=C(\C)CC/C=C(\C)CCC=C(C)C)=C(C)C1=O [CoQ10, CoEnzyme Q10] | ≥ 25 | ≥ 25 | significantly reduced | significant decrease | significantly lower levels | –
2 | 9-desglycinamide, 8-arginine vasopressin [DGAVP] | – | – | – | – | – | 3-5 fold

Reference: patent publication US20030167556A1, “Methods and devices for transdermal delivery of anti-aging compounds for treatment and prevention of facial or neck skin aging” (Consumers Choice Systems, Inc., priority 2002, published 2003)
